This note sets out measurements from ChEMBL document CHEMBL1153292, “Atropisomeric small molecule Bcl-2 ligands: determination of bioactive conformation” (Bioorg Med Chem Lett, 2009).

Apoptosis regulator Bcl-2, sequence (P10415 whole entry, the tested form may be a part): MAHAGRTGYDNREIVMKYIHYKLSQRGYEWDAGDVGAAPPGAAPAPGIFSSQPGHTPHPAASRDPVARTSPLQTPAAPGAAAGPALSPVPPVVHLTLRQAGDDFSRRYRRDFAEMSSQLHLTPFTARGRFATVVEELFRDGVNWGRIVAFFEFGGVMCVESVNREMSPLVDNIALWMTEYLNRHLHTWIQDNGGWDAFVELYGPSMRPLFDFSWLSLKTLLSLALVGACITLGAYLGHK

This test addresses Apoptosis regulator Bcl-2 (Homo sapiens, UniProt P10415). Description: Inhibition of GST fused Bcl-2 binding to biotinylated 16 mer BH3 peptide by HTRF-LANCE assay. For orientation: Time-resolved FRET reads energy transfer from a long-lived donor to a nearby acceptor.
Regarding `CCCCN(CCCC)C(=O)c1cc(C)n(-c2cccc(C)c2C(=O)N2Cc3ccccc3C[C@H]2CN)n1`, the IC50 (as a rule, the concentration at which inhibition is half-maximal) was 175 nM. The figure for `CCCCN(CCCC)C(=O)c1nn(-c2cccc(C)c2C(=O)N2Cc3ccccc3C[C@H]2CN)c(C)c1Cl` is 42 nM; for `Cc1cccc(-n2nc(C(=O)N(c3ccccc3)c3ccccc3)cc2C)c1C(=O)N1Cc2ccccc2CC1CO` (configuration not stated) it is 600 nM; for `Cc1cccc(-n2nc(C(=O)N(c3ccccc3)c3ccccc3)cc2C)c1C(=O)N1Cc2ccccc2C[C@@H]1CO` (atropisomer aR; form 1) it is 1100 nM. Turning to `Cc1cccc(-n2nc(C(=O)N(c3ccccc3)c3ccccc3)cc2C)c1C(=O)N1Cc2ccccc2C[C@@H]1CO` (atropisomer aR; form 2), the half-inhibitory concentration (IC50) came out at 6100 nM. The figure for `Cc1cccc(-n2nc(C(=O)N(c3ccccc3)c3ccccc3)cc2C)c1C(=O)N1Cc2ccccc2C[C@@H]1CO` (atropisomer aR; form 3) is 390 nM; for `Cc1cccc(-n2nc(C(=O)N(c3ccccc3)c3ccccc3)cc2C)c1C(=O)N1Cc2ccccc2C[C@H]1CO` (atropisomer aS) it is 210 nM.
